In patent US8969386B2, “Modulators of CFTR” (Vertex Pharmaceuticals Incorporated, priority 2007, dated 2015):

Biological target: T1, ΔF508-CFTR (Homo sapiens, UniProt P13569, DEL508-508)
T1 construct: expressed in transfected cells
Test: ΔF508-CFTR correction, membrane potential optical (FRET/VIPR) assay
Assay type: cell-based
Conditions: NIH3T3 mouse fibroblasts stably expressing ΔF508-CFTR; for Emax: read-out: % Efficacy
From the text: Assays for Detecting and Measuring ΔF508-CFTR Correction Properties of Compounds
Membrane potential optical methods for assaying ΔF508-CFTR modulation properties of compounds
The optical membrane potential assay utilized voltage-sensitive FRET sensors described by Gonzalez and Tsien (See Gonzalez, J. E. and R. Y. Tsien (1995) “Voltage sensing by fluorescence resonance energy transfer in single cells” Biophys J 69(4): 1272-80, and Gonzalez, J. E. and R. Y. Tsien (1997) “Improved indicators of cell membrane potential that use fluorescence resonance energy transfer” Chem Biol 4(4): 269-77) in combination with instrumentation for measuring fluorescence changes such as the Voltage/Ion Probe Reader (VIPR) (See Gonzalez, J. E., K. Oades, et al. (1999) “Cell-based assays and instrumentation for screening ion-channel targets” Drug Discov Today 4(9): 431-439).
These voltage sensitive assays are based on the change in fluorescence resonant energy transfer (FRET) between the membrane-soluble, voltage-sensitive dye, DiSBAC2(3), and a fluorescent phospholipid, CC2-DMPE, which is attached to the outer leaflet of the plasma membrane and acts as a FRET donor. Changes in membrane potential (Vm) cause the negatively charged DiSBAC2(3) to redistribute across the plasma membrane and the amount of energy transfer from CC2-DMPE changes accordingly. The changes in fluorescence emission were monitored using VIPR™ II, which is an integrated liquid handler and fluorescent detector designed to conduct cell-based screens in 96- or 384-well microtiter plates.
1. Identification of Correction Compounds
To identify small molecules that correct the trafficking defect associated with ΔF508-CFTR; a single-addition HTS assay format was developed. The cells were incubated in serum-free medium for 16 hrs at 37° C. in the presence or absence (negative control) of test compound. As a positive control, cells plated in 384-well plates were incubated for 16 hrs at 27° C. to “temperature-correct” ΔF508-CFTR. The cells were subsequently rinsed 3× with Krebs Ringers solution and loaded with the voltage-sensitive dyes. To activate ΔF508-CFTR, 10 μM forskolin and the CFTR potentiator, genistein (20 μM), were added along with Cl^−-free medium to each well. The addition of Cl^−-free medium promoted Cl^− efflux in response to ΔF508-CFTR activation and the resulting membrane depolarization was optically monitored using the FRET-based voltage-sensor dyes.
NIH3T3 mouse fibroblasts stably expressing ΔF508-CFTR are used for optical measurements of membrane potential. The cells are maintained at 37° C. in 5% CO2 and 90% humidity in Dulbecco's modified Eagle's medium supplemented with 2 mM glutamine, 10% fetal bovine serum, 1×NEAA, β-ME, 1× pen/strep, and 25 mM HEPES in 175 cm^2 culture flasks. For all optical assays, the cells were seeded at 30,000/well in 384-well matrigel-coated plates and cultured for 2 hrs at 37° C. before culturing at 27° C. for 24 hrs for the potentiator assay. For the correction assays, the cells are cultured at 27° C. or 37° C. with and without compounds for 16-24 hours Electrophysiological Assays for assaying ΔF508-CFTR modulation properties of compounds

T1 sequence (P13569 with tags, fused parts or gaps DEL508-508): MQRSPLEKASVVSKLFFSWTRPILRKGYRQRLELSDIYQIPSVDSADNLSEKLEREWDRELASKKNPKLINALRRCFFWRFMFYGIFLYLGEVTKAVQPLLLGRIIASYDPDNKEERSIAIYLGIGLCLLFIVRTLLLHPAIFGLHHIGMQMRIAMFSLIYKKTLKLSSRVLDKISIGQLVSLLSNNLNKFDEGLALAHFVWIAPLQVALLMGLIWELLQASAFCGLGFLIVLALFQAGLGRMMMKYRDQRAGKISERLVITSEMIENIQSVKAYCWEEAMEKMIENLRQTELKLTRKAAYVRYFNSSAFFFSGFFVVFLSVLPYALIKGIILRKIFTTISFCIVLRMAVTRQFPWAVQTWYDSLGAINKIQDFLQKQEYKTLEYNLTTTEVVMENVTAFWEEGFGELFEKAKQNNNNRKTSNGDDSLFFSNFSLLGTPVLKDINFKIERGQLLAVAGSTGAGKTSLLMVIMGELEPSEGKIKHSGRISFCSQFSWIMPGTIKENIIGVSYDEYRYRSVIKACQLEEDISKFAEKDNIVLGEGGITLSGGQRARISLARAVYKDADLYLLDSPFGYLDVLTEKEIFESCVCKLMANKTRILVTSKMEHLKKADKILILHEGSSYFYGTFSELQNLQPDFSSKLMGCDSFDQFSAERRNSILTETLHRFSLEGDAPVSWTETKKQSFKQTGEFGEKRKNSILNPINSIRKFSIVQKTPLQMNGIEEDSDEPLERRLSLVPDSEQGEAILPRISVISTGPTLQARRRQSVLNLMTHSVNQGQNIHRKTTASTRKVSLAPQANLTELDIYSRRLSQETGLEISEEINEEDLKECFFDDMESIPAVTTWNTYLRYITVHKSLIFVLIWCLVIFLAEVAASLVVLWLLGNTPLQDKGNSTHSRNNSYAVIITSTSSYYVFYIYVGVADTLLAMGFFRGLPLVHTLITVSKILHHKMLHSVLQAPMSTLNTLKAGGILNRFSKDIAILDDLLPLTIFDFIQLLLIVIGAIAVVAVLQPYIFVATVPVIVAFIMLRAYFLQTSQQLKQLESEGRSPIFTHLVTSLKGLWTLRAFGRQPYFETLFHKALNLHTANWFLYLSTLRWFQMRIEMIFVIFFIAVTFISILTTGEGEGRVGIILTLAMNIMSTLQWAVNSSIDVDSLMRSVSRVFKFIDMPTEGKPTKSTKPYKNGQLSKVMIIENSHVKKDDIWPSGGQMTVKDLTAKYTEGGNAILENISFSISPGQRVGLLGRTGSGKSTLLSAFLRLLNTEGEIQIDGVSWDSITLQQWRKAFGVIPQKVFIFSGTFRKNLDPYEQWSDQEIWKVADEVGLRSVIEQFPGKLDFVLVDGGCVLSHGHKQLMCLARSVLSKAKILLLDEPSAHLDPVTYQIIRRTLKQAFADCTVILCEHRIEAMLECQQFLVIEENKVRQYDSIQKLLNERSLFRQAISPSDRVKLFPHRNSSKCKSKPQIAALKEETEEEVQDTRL

SMILES | EC50 | Emax
COc1cccc(C2(C(=O)Nc3ccc(C)c(-c4c[nH]c(=O)c(C)c4)n3)CC2)c1 [Compound 63] | < 2 µM | 50 to 100%
Cc1cc(NC(=O)C2(c3ccc4c(c3)CCO4)CC2)nc(-c2ccc[nH]c2=O)c1 [Compound 69] | < 2 µM | 50 to 100%
Cc1cc(NC(=O)C2(c3ccc4c(c3)OC(F)(F)O4)CC2)nc(-c2ccc(=O)[nH]c2)c1C#N [Compound 96] | < 2 µM | > 100%
Cc1ccc(NC(=O)C2(c3ccc4c(c3)OC(F)(F)O4)CC2)nc1-c1ccc(=O)n(CCS(C)(=O)=O)c1 [Compound 95] | < 2 µM | > 100%
COc1ccc(-c2nc(NC(=O)C3(c4ccc5c(c4)CCO5)CC3)cc(C)c2C)cn1 [Compound 101] | < 2 µM | > 100%
Cc1cc(=O)[nH]cc1-c1nc(NC(=O)C2(c3ccc4c(c3)OC(F)(F)O4)CC2)ccc1C [Compound 14] | < 2 µM | 50 to 100%
COc1ncccc1-c1nc(NC(=O)C2(c3ccc4c(c3)CCO4)CC2)cc(C)c1C [Compound 100] | < 2 µM | > 100%
Cc1ccc(NC(=O)C2(c3ccc4c(c3)OC(F)(F)O4)CC2)nc1-c1c[nH]c(=O)c(CO)c1 [Compound 1] | < 2 µM | 50 to 100%
CCc1ccc(NC(=O)C2(c3ccc4c(c3)OC(F)(F)O4)CC2)nc1-c1ccc(=O)[nH]c1 [Compound 5] | < 2 µM | 50 to 100%
Cc1ccc(NC(=O)C2(c3ccc4c(c3)OC(F)(F)O4)CC2)nc1-c1c[nH]c(=O)c(N)c1 [Compound 77] | < 2 µM | > 100%
Cc1cc(NC(=O)C2(c3ccc4c(c3)OC(F)(F)O4)CC2)nc(-c2ccc[nH]c2=O)c1C [Compound 66] | < 2 µM | > 100%
Cc1ncc(NC(=O)C2(c3ccc4c(c3)OC(F)(F)O4)CC2)nc1-c1ccc[nH]c1=O [Compound 54] | < 2 µM | 50 to 100%
O=C(Nc1ccc(Cl)c(-c2ccc(=O)[nH]c2)n1)C1(c2ccc3c(c2)OC(F)(F)O3)CC1 [Compound 22] | < 2 µM | 50 to 100%
COc1ccc(-c2nc(NC(=O)C3(c4ccc5c(c4)OC(F)(F)O5)CC3)ccc2Cl)cn1 [Compound 24] | < 2 µM | > 100%
Cc1cc(NC(=O)C2(c3ccc4c(c3)OC(F)(F)O4)CC2)nc(-c2ccc(=O)[nH]c2C)c1C [Compound 108] | < 2 µM | > 100%
Cc1ccc(NC(=O)C2(c3ccc(Cl)cc3)CC2)nc1-c1c[nH]c(=O)c(C)c1 [Compound 61] | < 2 µM | 50 to 100%
COc1ncc(-c2nc(NC(=O)C3(c4ccc5c(c4)OC(F)(F)O5)CC3)ccc2C)cc1NC(C)=O [Compound 33] | < 2 µM | > 100%
Cc1ccc(NC(=O)C2(c3ccc4c(c3)OC(F)(F)O4)CC2)nc1-c1ccc(=O)n(C[C@@H](O)CO)c1 [Compound 79] | < 2 µM | > 100%
COc1ncc(-c2nc(NC(=O)C3(c4ccc5c(c4)OC(F)(F)O5)CC3)ccc2C)cc1N [Compound 9] | < 2 µM | > 100%
Cc1ccc(NC(=O)C2(c3ccc4c(c3)OC(F)(F)O4)CC2)nc1-c1c[nH]c(=O)c(C)c1 [Compound 6] | < 2 µM | > 100%
Cc1cc(NC(=O)C2(c3ccc4c(c3)OC(F)(F)O4)CC2)nc(-c2c[nH]c(=O)c(C)c2)c1C [Compound 111] | < 2 µM | > 100%
COc1ccc(C2(C(=O)Nc3ccc(C)c(-c4ccc[nH]c4=O)n3)CC2)cc1 [Compound 10] | < 2 µM | 50 to 100%
COc1cc(-c2cc(C)cc(NC(=O)C3(c4ccc5c(c4)OC(F)(F)O5)CC3)n2)ccn1 [Compound 3] | < 2 µM | > 100%
Cc1cc(NC(=O)C2(c3ccc4c(c3)CCO4)CC2)nc(-c2cc[nH]c(=O)c2)c1C [Compound 109] | < 2 µM | 50 to 100%
COc1ncccc1-c1cccc(NC(=O)C2(c3ccc4c(c3)OCO4)CC2)n1 [Compound 93] | < 2 µM | > 100%

SMILES | EC50 | Emax
COc1cc(C)c(-c2nc(NC(=O)C3(c4ccc5c(c4)OC(F)(F)O5)CC3)cc(C)c2C)cn1 [Compound 89] | < 2 µM | > 100%
Cc1ccc(NC(=O)C2(c3ccc4c(c3)CCO4)CC2)nc1-c1cc[nH]c(=O)c1 [Compound 80] | < 2 µM | 50 to 100%
COc1cc(-c2nc(NC(=O)C3(c4ccc5c(c4)CCO5)CC3)cc(C)c2C)ccn1 [Compound 102] | < 2 µM | 50 to 100%
Cc1ccc(NC(=O)C2(c3ccc4c(c3)OC(F)(F)O4)CC2)nc1-c1ccc(=O)n(CC(=O)O)c1 [Compound 13] | > 5 µM | 50 to 100%
COc1ncccc1-c1cc(C)cc(NC(=O)C2(c3ccc4c(c3)OC(F)(F)O4)CC2)n1 [Compound 48] | < 2 µM | > 100%
COc1cc(-c2nc(NC(=O)C3(c4ccc5c(c4)OC(F)(F)O5)CC3)ccc2C)ccn1 [Compound 11] | < 2 µM | > 100%
Cc1ccc(NC(=O)C2(c3ccc4c(c3)OCCO4)CC2)nc1-c1c[nH]c(=O)c(C)c1 [Compound 60] | < 2 µM | 50 to 100%
COc1ccc(-c2nc(NC(=O)C3(c4ccc5c(c4)OC(F)(F)O5)CC3)cc(C)c2C)c(C)n1 [Compound 103] | < 2 µM | > 100%
Cc1cc(-c2nc(NC(=O)C3(c4ccc5c(c4)OC(F)(F)O5)CC3)ccc2C)c(=O)n(CCO)c1 [Compound 116] | < 2 µM | > 100%
Cc1cc(NC(=O)C2(c3ccc4c(c3)OC(F)(F)O4)CC2)nc(-c2ccc(=O)[nH]c2)c1 [Compound 27] | < 2 µM | > 100%
COc1ncccc1-c1nc(NC(=O)C2(c3ccc4c(c3)OC(F)(F)O4)CC2)cc(C)c1C [Compound 56] | < 2 µM | > 100%
Cc1ccc(NC(=O)C2(c3ccc4c(c3)OC(F)(F)O4)CC2)nc1-c1ccc(=O)n(CCO)c1 [Compound 20] | < 2 µM | > 100%
Cc1ccc(NC(=O)C2(c3ccc4c(c3)OC(F)(F)O4)CC2)nc1-c1cc[nH]c(=O)c1 [Compound 44] | < 2 µM | 50 to 100%
COc1ncc(-c2nc(NC(=O)C3(c4ccc5c(c4)OC(F)(F)O5)CC3)ccc2C)cc1C(=O)N(C)C [Compound 73] | < 2 µM | 50 to 100%
COc1ncc(-c2nc(NC(=O)C3(c4ccc5c(c4)OC(F)(F)O5)CC3)ccc2C)cc1Cl [Compound 71] | < 2 µM | > 100%
Cc1cc(NC(=O)C2(c3ccc4c(c3)OC(F)(F)O4)CC2)nc(-c2ccc[nH]c2=O)c1 [Compound 17] | < 2 µM | > 100%
Cc1cc(=O)[nH]cc1-c1nc(NC(=O)C2(c3ccc4c(c3)OC(F)(F)O4)CC2)cc(C)c1C [Compound 90] | < 2 µM | > 100%
COc1cc(-c2nc(NC(=O)C3(c4ccc5c(c4)OC(F)(F)O5)CC3)cc(C)c2C)ccn1 [Compound 58] | < 2 µM | > 100%
COc1ccc(-c2nc(NC(=O)C3(c4ccc5c(c4)OC(F)(F)O5)CC3)cc(C)c2C)cn1 [Compound 57] | < 2 µM | > 100%
Cc1cc(NC(=O)C2(c3ccc4c(c3)CCO4)CC2)nc(-c2ccc[nH]c2=O)c1C [Compound 114] | < 2 µM | 50 to 100%
Cc1cc(NC(=O)C2(c3ccc4c(c3)CCO4)CC2)nc(-c2ccc(=O)[nH]c2)c1 [Compound 68] | < 2 µM | 50 to 100%
COc1ccc(C2(C(=O)Nc3ccc(C)c(-c4cc[nH]c(=O)c4)n3)CC2)cc1 [Compound 26] | < 2 µM | 50 to 100%
Cc1ccc(NC(=O)C2(c3ccc4c(c3)OC(F)(F)O4)CC2)nc1-c1ccn(CCO)c(=O)c1 [Compound 29] | < 2 µM | > 100%
COc1cc(-c2nc(NC(=O)C3(c4ccc5c(c4)OC(F)(F)O5)CC3)ccc2C)cnc1OC [Compound 72] | < 2 µM | > 100%
COC(=O)Cn1cc(-c2nc(NC(=O)C3(c4ccc5c(c4)OC(F)(F)O5)CC3)ccc2C)cc(C#N)c1=O [Compound 110] | < 2 µM | 50 to 100%
